Values quoted from earlier work in US11065213B2, “Amantadine compositions and preparations thereof” (Adamas Pharma, LLC, priority 2017, dated 2021).
Where two headings read alike, the source gives them in different places.

System: LID in PD patients
Details: IR formulation

NC12CC3CC(CC(C3)C1)C2 [amantadine]
reduction in LID (200 mg/day): approximately 25% | reduction of LID (300 mg/day): ~40% | reduction of LID (300 to 400 mg/day): ~60%
